These results are taken from patent US20230390277A1, “METHODS TO SENSITIZE TUMORS TO TREATMENT BY IMMUNOTHERAPY” (Ohio State Innovation Foundation, priority 2020, published 2023).

Data set [1] concerns MP2 pODD flank tumors. Put plainly: in vivo bioluminescent imaging, heterotopic MP2 pODD flank tumors. Also noted: species or system mouse. Particulars: 4 mg intraperitoneally, 4 hours post injection. The procedure: In vivo bioluminescent imaging. […] For heterotopic flank tumor experiments, 1×10^6 HeLa pODD or 5×10^6 MP2 cells were injected subcutaneously (s.c.) into the flanks of 6-wk-old female (HeLa pODD) or male (N1P2 pODD or MP2 CMV) immunocompromised athymic nu/nu mice. Replicate experiments with groups of 4-6 mice were used for statistical reproducibility. Caliper measurements of opposing diameters were used to calculate the tumor volumes using the modified ellipsoidal formula: tumor volume=(length×width^2)[23]. Upon reaching 100 mm^3, the animals were given 100 mg/kg D-luciferin intraperitoneally and bioluminescence images were captured using IVIS In Vivo Imaging System Lumina II (Perkin Elmer Inc). […] Bioluminescent data were analyzed using living Image software (Perkin Elmer Inc) and calculated as photon flux/sec. Obtained individual photon flux peak values were then normalized to baseline for each mouse and averaged per group. Gas inhalation experiments were performed by switching medical air and carbogen gas sources for the IVIS anesthesia vaporizer. Initial baselines were established in medical air under anesthesia, then the mice were subjected to 30 minutes of either medical air or carbogen rebreathing in an air-tight chamber while awake. After 30 minutes, photon flux was established in respective gas sources as a carrier for isoflurane anesthesia.

Data set [2] has as its system MP2 CMV cells. Put plainly: in vitro luciferase assay, MP2 CMV control cells. The format is cell-based, human. The settings on record: 1 mM DMOG, constitutive CMV reporter. The protocol: (§1) PCR-amplified cassette was then digested with Asci and Pmel restriction enzymes and ligated into pLenti-C-Myc-DDK-IRES-Puro. Correct orientation and sequence was confirmed by Sanger DNA sequencing. HeLa pODD and MIP2 pODD transfectants were selected with 2 μg/ml Puromycin for two weeks. Stable MP2 CMV Cells were generated by lentiviral transduction of MP2 cells with pLenti-CMV-Puro-Luc lentiviral vector (Addgene#17477) with 2 Puromycin selection for two weeks. Cells were grown in Dulbecco's Modified Eagle's Medium (DMEM) containing 25 mM D-glucose, 4 mM glutamine and 44 mM sodium bicarbonate in 5% CO2, if not stated otherwise. The cells were exposed to hypoxia (1% O2) in H35 Hypoxic Workstation (Hypoxygen) with 5% CO2 at 37° C. In some experiments, we used a hypoxia mimetic dimethyloxalyglycine (DMOG) as described. Cell counts and cellular proliferation were established using hemocytometer to determine the cell number and trypan blue exclusion assay to establish the fraction of viable/dead cells. All human cell lines have been authenticated using STR profiling within the past 3 years. All experiments were performed with mycoplasma-free cells.
In vitro luciferase Assay. […] Bioluminescence was measured on a Synergy H1 Hybrid Plate Reader (Biotek) after a 10-minute incubation period (10 slsample, Gain=150) in triplicates.

Data set [3] has as its system pODD-Luc reporter in MP2 pODD cells. The experiment in a line: in vitro luciferase assay, MP2 pODD cells. Type of data set: cell-based, human. The settings on record: 16 hours, 1 mM. The procedure: as §1
In vitro luciferase Assay. Proteins were extracted using Luciferase Assay Lysis Buffer (125 mM Tris-HCl, pH 7.5, 11.0 mM DTT, 10 mM EGTA, 50% Glycerol, 5% Triton X-100) and 200 μl/sample were transferred to 96-well plate and D-luciferin was added to the final concentration of 150 μg/ml immediately before the assay. Bioluminescence was measured on a Synergy H1 Hybrid Plate Reader (Biotek) after a 10-minute incubation period (10 slsample, Gain=150) in triplicates.

Data set [4] relates to murine tumors. The experiment in a line: murine tumor hypoxia and radiation response. Particulars: mouse, in vivo.
The test system of data set [5] is CMT167 flank lung tumors. The experiment in a line: CMT167 flank lung tumors in C57Bl6 mice, sensitization to anti PD-1. Type of data set: in vivo, mouse. The procedure:
C57B16 mice bearing CMT167 flank lung tumors were treated as indicated on days 10 and 13 and relative volume followed.
There are reports in the literature indicating ways that hypoxia affects immune functions of lymphocytes, MDSCs and T regulatory cells infiltrating in the tumor.

Data set [6] addresses T1, PDE10A (Homo sapiens, UniProt Q9Y233).
T1 construct: purchased BPS Bioscience
The experiment in a line: PDE10A purified enzyme activity assay (BPS Bioscience). The format is biochemical. The settings on record: dose response analysis. The source says:
We therefore defined the structure activity relationship (SAR) of PPV relative to two assays: inhibition of cellular OCR by Seahorse XE assay, and inhibition of PDE10A by purified enzyme activity (PDE10A activity assay, BPS Bioscience). […] Because the top portion of PPV was a planar structure like that of rotenone, we decided to focus our attention on the lower portion of the molecule.

The test system of data set [7] is orthotopic MP2 pODD tumors. The experiment in a line: in vivo bioluminescent imaging, orthotopic MP2 pODD tumors. Also noted: species or system mouse. Particulars: 2 mg/kg, tail vein. The protocol: Orthotopic Panreatic Xenografts. MP2 PD AC cells (1×10^6) or the indicated derivates were implanted in immune-deficient athymic nu/nu mice following fACLIC approved protocols. Briefly, an incision was placed in the right flank of anesthetized animals the spleen and pancreas liberated. Cells were mixed 1:1 with Matfigel and implanted in the tail of the pancreas in 10 μl. Incision was sutured in 2 layers, animals given long lasting analgesics, and allowed to recover from anesthesia. Mice were returned to housing for post-op care and monitored daily for 4 days. Animals were checked weekly after that by palpation to determine tumor growth.
In vivo bioluminescent imaging. All animal experiments were performed according to protocols approved by the OSU institutional IAGLIC review (protocol #201200000124-R2), with daily veterinarian observation. For heterotopic flank tumor experiments, 1×10^6 HeLa pODD or 5×10^6 MP2 cells were injected subcutaneously (s.c.) into the flanks of 6-wk-old female (HeLa pODD) or male (N1P2 pODD or MP2 CMV) immunocompromised athymic nu/nu mice. […] Mice were anesthetized with 1.5% isoflurane and bioluminescence was measured every two minutes for the period of 25 minutes to identify peak response of each mouse to D-luciferin. Bioluminescent data were analyzed using living Image software (Perkin Elmer Inc) and calculated as photon flux/sec. […]

In data set [8] the test system is MC38 colorectal tumor. Put plainly: MC38 colorectal tumors in C57Bl6 mice, sensitization to anti PD-1. The format is in vivo, mouse. The procedure:
MC38 tumors grown in C57B16 mice were treated as indicated with irrelevant antibody, anti PD-1, or anti PD-1 after PPV or SMV32 n=5-7, P=<0.05* for PPV and <0.01** for SMV32.
Papaverine and SMV32 enhance PD-1 checkpoint blockade immunotherapy for cancer treatment. Because of the literature describing the immunomodulatory effects of hypoxia^(24-27), we hypothesized that reducing hypoxia may also enhance tumor lymphocyte infiltration and function and improve immune-mediated tumor cell killing. As those of skill in the art recognize, there is a large body of literature and research on increase the supply side of the hypoxia equation, but it has been heretofore an unexpected approach to decrease the tri demand side of the hypoxia equation. We tested tumors grown from the relatively immune-sensitive syngeneic MC38 colorectal tumor line in immuno-competent C5713116 mice. […] In a second cohort, we implanted 1×10^6 cells/mouse and after 5 days, when tumors were 50-100 mm^3, they were randomized into four groups. Therapy was started with either control rat IgG antibody, or a suboptimal dose of anti PD-1(CD279) blocking monoclonal antibody (BioXCell, clone 29F.1A12, 100 μg ip every 3 days).

Data set [9] relates to cells. Put plainly: in vitro washout experiments. Particulars: initial studies. The format is cell-based.
The test system of data set [10] is LLC tumor. The experiment in a line: Lewis Lung Carcinoma (LLC) PD-1 blockade resistant tumor model. Type of data set: in vivo, mouse. The procedure:
LLC tumor bearing mice were treated as indicated on days 5, 8 and relative growth followed. P=NS for PD-1 vs PPV->PD1, 0.04 for PD-i vs SMV32->PD-1.
Finally, as a rigorous test of anti-hypoxia agents as immuno-sensitizers of model tumors grown in mice, we next tested the PD-1 blockade resistant tumor model Lewis Lung Carcinoma (LLC). These tumors have been reported to be refractory to even full dose (200 ug/mouse) PD-1 blocking antibody.

Data set [11] has as its target ETC complex 1 (C1) (Homo sapiens, UniProt O75251+O75306+P03886). Put plainly: inhibition of cellular OCR by Seahorse XE assay. The format is cell-based. The source says: PPVs PDE and mitochondrial activities are chemically separable. Papaverine has been traditionally thought to be effective as a vasodilator for the treatment of conditions including erectile dysfunction because it can inhibit PDE10A (like PDE 5 inhibitors sildenafil and tadalafil). However, PDE inhibition is not responsible for OCR effects in vitro, so we postulated that there are two activities in PPV, one inhibiting ETC complex 1 (C1) and one inhibiting PDE10A that may reside in different parts of the molecule. We therefore defined the structure activity relationship (SAR) of PPV relative to two assays: inhibition of cellular OCR by Seahorse XE assay, and inhibition of PDE10A by purified enzyme activity (PDE10A activity assay, BPS Bioscience). Because PPV can compete with rotenone at complex 1 (23), we reasoned that they may be binding the same site and therefore the structures would be similar relative to their target. Because the top portion of PPV was a planar structure like that of rotenone, we decided to focus our attention on the lower portion of the molecule.

Data set [12] relates to CD8 T cells in MC38 tumors. Put plainly: multispectral immunophenotyping of tumor infiltrating lymphocytes in MC38 tumors. Type of data set: in vivo, mouse. The settings on record: 2 mg/kg IV days 8, 10, 13; tumors harvested day 15. The protocol:
Panel A Tumor infiltrating immune cells isolated from Day 15 MC38 tumors (n=4/g) were stained for lineage (CD45, CD3, CD8, […], and CD11b) and T cell exhaustion (PD1, Tim3, Slamf6, TOX, Tcf1, CD44, CD62L, CTLA4, Lag-3, Klrg1, T-bet, and Ki-67) (93-96). Cells were analyzed by Cytek Aurora multi-spectral FACS, and Umap generated based on concatenated file from each 4 FSC files without variation in cell number. Limp figure was generated by OMIQ with CD8 T cells (CD45+, CD3+, CD8+, CD11b−, CD4−). CD8 population was divided into 15 clusters based on T cell markers. Expression signatures marked (ovals) show progenitor exhausted T cells and terminally exhausted T cells. Panel B Statistical significance of clusters between control and SMV32 treated group were assessed by edgeR and SAM (n=4 mice per group).
In order to determine a mechanism by which reduction in hypoxia enhances immune function in the solid tumor, we undertook an investigation with multi spectral immunophenotyping. This technology uses 36 different markers simultaneously to characterize immune cell infiltrate in tumors. We performed this analysis on heterotopic NIC38 murine colorectal carcinoma tumors grown in immune-competent C57BI6 mouse strain. A cohort of tumor bearing mice were randomized to be treated with either IV delivery of vehicle control, or either PPV or SMV32. […]

Chain of ETC complex 1 (C1) (O75251 39-213): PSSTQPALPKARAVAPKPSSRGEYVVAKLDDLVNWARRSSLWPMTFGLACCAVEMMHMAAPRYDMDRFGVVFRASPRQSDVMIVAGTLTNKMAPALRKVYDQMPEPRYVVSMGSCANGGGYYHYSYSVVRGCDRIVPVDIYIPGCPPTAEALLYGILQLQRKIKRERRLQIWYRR
Chain of ETC complex 1 (C1) (O75306 34-463): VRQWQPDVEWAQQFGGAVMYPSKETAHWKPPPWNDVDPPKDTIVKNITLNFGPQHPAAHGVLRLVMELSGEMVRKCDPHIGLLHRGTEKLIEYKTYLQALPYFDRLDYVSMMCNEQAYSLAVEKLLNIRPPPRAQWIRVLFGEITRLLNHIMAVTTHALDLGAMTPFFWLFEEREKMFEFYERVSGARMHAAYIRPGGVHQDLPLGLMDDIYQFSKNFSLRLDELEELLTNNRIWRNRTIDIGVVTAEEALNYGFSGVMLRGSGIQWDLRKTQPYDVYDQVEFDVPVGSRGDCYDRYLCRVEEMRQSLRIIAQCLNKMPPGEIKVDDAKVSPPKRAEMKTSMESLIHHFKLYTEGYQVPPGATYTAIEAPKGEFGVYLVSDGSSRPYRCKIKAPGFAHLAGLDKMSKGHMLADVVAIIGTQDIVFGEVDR
Chain of ETC complex 1 (C1) (P03886 whole entry): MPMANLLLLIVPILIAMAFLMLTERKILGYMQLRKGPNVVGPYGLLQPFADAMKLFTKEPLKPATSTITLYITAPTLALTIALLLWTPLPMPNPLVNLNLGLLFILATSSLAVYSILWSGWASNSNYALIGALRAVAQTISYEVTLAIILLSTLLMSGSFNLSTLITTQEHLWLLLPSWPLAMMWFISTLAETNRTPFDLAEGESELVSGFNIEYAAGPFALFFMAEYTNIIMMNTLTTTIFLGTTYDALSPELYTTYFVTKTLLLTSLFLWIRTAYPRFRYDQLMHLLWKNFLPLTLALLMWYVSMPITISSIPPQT
T1 sequence (Q9Y233 whole entry): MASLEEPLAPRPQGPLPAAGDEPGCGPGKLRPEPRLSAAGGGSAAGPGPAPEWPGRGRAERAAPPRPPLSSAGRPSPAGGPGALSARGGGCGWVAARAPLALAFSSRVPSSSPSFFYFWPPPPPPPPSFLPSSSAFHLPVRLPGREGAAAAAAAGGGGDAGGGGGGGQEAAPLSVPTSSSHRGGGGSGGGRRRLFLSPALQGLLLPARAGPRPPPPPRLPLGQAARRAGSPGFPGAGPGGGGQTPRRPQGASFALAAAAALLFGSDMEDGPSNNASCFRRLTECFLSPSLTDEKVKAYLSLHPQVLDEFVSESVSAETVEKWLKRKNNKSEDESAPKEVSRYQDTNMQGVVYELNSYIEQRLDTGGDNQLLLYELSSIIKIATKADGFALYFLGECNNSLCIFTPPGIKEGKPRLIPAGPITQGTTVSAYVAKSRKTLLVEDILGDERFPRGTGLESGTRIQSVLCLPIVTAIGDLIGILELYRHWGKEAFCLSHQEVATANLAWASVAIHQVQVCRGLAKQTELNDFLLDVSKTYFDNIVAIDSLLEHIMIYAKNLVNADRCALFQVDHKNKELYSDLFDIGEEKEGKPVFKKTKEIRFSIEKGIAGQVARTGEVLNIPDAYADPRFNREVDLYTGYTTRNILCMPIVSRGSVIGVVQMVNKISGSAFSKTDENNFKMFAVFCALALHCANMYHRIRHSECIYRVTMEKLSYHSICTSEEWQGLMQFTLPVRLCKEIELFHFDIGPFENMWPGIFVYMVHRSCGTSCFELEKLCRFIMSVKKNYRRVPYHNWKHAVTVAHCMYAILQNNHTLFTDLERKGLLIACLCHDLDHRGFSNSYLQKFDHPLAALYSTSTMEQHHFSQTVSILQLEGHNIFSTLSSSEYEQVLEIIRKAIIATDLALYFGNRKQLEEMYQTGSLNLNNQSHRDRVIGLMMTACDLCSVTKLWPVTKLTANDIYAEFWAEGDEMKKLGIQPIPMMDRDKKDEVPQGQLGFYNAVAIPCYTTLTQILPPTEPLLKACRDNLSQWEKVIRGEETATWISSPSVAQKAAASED

In the case of `COC(=O)CNC(=O)C(=O)OC` [DMOG, dimethyloxalyglycine], the “photon flux” value in data set [1] is recorded as “significant increase of photon flux”. In addition, the “luciferase signal response” value in data set [2] is “unresponsive”. For the same molecule, the “increase of pODD-Luc signal” value in [3] came to 2.2 ×.

`COc1cc2ccnc(Cc3cccc4ccccc34)c2cc1OC` [SMV32]: in data set [4], the “radiation response” value is on record as “increase radiation response of murine tumors” and the “tumor hypoxia” value is “reduce tumor hypoxia”. The “tumor growth delay” value in data set [5] (given 16 hours prior to sub-optimal anti-PD-1, days 10 and 13) is “significant tumor growth delay”. Further, the “comparison with PPV for sensitizing tumors to PD-1 blockade” value in data set [5] (same dose as PPV) is listed as “superior to PPV”. Moreover, the “PDE inhibition IC25” value in data set [6] turned out to be 13.4 µM. The “photon flux compared to PPV treated mice” value in [7] is “trended to longer duration of action and lower luciferase activity at 6 hours”. The “effect on PD-1 blockade” value in data set [8] (2 mg/kg iv 16 hours prior to suboptimal anti PD-1 (100 μg ip every 3 days)) is “enhance the effectiveness of suboptimal PD-1 blockade”. Further, the “tumor growth, compound alone” value in [8] (repeated dosing, no antibody) is on record as “no effect on tumor growth”. Besides, the “washout from cells” value in data set [9] is “does not wash out of cells”. The “comparison with PPV for sensitizing tumors to PD-1 blockade” value in data set [10] (resistant LLC tumors) is “superior to PPV”. Besides, in [10] (treated on days 5, 8), the “therapeutic effect, compound first and PD-1 antibody second” value was “significant growth inhibition”. Further, the “mitochondrial activity” value in data set [11] is listed as “retain mitochondrial activity”. Besides, the “C1 inhibitor selectivity” value in data set [11] (vs PDE10A) is given as “relatively pure”. In addition, in data set [12], the “exhausted CD8 T cell populations” value is on record as “shift from terminal (known to be non-functional) to progenitor cells”.
